Data reported in publication PMC3933693, “Novel Inhibitors of Mitochondrial sn-Glycerol 3-phosphate Dehydrogenase” (PLoS ONE, 2014).
Several values for one entry are separate records, joined by “and”; a condition that tells them apart may be missing. Identical values can stand only once.

How the values were obtained:
[1] = target: T1, flavin site of complex II (site IIF) (Rattus norvegicus, UniProt Q920L2); test: Site-specific H2O2 production from site IIF in skeletal muscle mitochondria; type: biochemical
T1 construct: from tissue; host or cells: skeletal muscle mitochondria
T1 sequence (Q920L2 35-656): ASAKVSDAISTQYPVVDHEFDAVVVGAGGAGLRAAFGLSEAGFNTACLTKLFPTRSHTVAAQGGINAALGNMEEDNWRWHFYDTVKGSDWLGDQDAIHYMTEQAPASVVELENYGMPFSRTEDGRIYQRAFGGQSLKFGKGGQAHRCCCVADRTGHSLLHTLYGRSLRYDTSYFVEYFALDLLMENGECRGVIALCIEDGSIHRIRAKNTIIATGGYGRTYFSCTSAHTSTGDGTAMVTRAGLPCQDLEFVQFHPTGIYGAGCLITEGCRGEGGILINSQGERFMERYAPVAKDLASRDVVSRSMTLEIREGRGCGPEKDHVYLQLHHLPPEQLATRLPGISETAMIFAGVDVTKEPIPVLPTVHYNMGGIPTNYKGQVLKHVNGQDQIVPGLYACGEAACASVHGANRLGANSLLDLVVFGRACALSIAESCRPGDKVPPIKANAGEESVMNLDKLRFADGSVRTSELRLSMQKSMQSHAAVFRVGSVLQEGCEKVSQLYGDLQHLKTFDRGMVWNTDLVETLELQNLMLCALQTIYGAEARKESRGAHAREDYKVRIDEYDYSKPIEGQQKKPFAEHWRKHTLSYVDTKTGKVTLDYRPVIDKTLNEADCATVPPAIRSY
T1 sequence (P21913 31-282 partner): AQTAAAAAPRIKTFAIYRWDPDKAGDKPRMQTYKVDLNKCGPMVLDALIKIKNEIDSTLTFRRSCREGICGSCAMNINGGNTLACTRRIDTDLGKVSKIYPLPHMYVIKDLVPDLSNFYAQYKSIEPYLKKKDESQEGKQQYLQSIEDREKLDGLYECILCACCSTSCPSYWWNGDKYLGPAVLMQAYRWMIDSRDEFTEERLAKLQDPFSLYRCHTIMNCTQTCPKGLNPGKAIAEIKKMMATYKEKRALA
T1 sequence (Q641Z9 30-169 partner limits assumed): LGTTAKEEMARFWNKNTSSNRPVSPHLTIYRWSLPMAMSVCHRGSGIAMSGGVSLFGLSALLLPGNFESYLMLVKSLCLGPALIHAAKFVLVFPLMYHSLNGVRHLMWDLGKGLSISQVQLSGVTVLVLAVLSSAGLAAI
T1 sequence (Q6PCT8 57-159 partner): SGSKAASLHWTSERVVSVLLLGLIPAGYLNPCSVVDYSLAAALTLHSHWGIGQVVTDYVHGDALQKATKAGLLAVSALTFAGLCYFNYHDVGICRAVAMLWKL
How it was run: (§1)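 Isolated rat skeletal muscle mitochondria; H2O2 read by Amplex UltraRed with added SOD and HRP. Site IF/DH: 5 mM glutamate, 5 mM malate, 4 µM rotenone. Site IIF: palmitoylcarnitine or succinate with rotenone/antimycin A/myxothiazol. Site IIIQo: succinate, rotenone, antimycin A. Screen at 2.5 µM, normalised as % change from DMSO.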

[2] = target: T2, mGPDH (Rattus norvegicus, UniProt P35571); test: Superoxide/H2O2 production by mGPDH in isolated skeletal muscle mitochondria (Amplex UltraRed); type: biochemical; conditions: for inhibition at 80 µM: read-out: mGPDH H2O2 production (% change at 80 μM)
T2 construct: Activity of mGPDH in frozen-thawed skeletal muscle mitochondria was measured; from tissue; host or cells: skeletal muscle mitochondria
T2 sequence (P35571 43-727): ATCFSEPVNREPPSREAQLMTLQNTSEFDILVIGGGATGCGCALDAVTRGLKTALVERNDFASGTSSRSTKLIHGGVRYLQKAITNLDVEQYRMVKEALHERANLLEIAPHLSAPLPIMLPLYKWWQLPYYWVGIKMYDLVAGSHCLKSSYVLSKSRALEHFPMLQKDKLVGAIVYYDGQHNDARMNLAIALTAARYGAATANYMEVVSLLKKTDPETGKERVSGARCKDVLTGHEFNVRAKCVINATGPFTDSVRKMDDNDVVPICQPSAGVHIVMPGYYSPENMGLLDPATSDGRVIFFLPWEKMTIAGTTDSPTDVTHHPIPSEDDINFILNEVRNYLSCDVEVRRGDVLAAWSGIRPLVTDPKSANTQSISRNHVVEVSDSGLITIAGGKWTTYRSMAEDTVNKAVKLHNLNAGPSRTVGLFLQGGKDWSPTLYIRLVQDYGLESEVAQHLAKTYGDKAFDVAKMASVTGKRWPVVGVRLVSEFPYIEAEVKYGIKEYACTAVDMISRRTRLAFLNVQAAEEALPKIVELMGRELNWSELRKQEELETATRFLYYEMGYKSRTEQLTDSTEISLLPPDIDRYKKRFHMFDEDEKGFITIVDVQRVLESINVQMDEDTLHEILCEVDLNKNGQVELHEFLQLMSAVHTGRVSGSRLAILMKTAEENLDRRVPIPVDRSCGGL

[3] = tested on: skeletal muscle mitochondria; test: Mitochondrial membrane potential (ΔΨm, TMRM) powered by glycerol phosphate; type: biochemical, rat; conditions: 16.7 mM glycerol phosphate; for ΔΨm with GP + Nig (% change at 80 μM): 4 µM rotenone, nigericin
Protocol: Mitochondrial membrane potential (ΔΨm) was estimated fluorimetrically as described previously [33] on the Varian fluorimeter, except the potentiometric dye TMRM was used in quench-mode in place of safranine O [34]. […] The effect of putative small-molecule inhibitors was normalized as the % change in fluorescence between vehicle treatment and complete depolarization by the uncoupler carbonyl cyanide-4-(trifluoromethoxy)phenylhydrazone (FCCP, 2 µM) added at the end of each run. When indicated, the K^+/H^+ exchanger nigericin (80 ng ⋅ ml^−1) was added to collapse the pH gradient across the mitochondrial inner membrane (ΔpH) and maximize ΔΨm.
Additionally, four microplate assays for ΔΨm were run in parallel to the H2O2 assays. These assays were as described under “Measurement of mitochondrial H2O2 production and membrane potential” except that each substrate condition was assayed in a separate microplate. […] Plates were incubated in the dark at room temperature for 30–40 min (H2O2) or 10–15 min (ΔΨm) after the addition of substrate, and endpoint fluorescence was measured on the Victor plate reader. […] Endpoints for the ΔΨm assays were determined in pilot experiments as the times for TMRM accumulation to reach a steady state. At room temperature, this was typically ∼ 5 min and remained stable for at least 30 min. Endpoint fluorescence values were normalized as described in the previous section with wells containing FCCP serving as positive controls for the ΔΨm assays.

[4] = tested on: skeletal muscle mitochondria; test: Mitochondrial membrane potential (ΔΨm, TMRM) powered by succinate; type: biochemical, rat; conditions: 2.5 mM; 5 mM succinate, rotenone, nigericin
Protocol: Mitochondrial membrane potential (ΔΨm) was estimated fluorimetrically as described previously on the Varian fluorimeter, except the potentiometric dye TMRM was used in quench-mode in place of safranine O [34]. […] The effect of putative small-molecule inhibitors was normalized as the % change in fluorescence between vehicle treatment and complete depolarization by the uncoupler carbonyl cyanide-4-(trifluoromethoxy)phenylhydrazone (FCCP, 2 µM) added at the end of each run. When indicated, the K^+/H^+ exchanger nigericin (80 ng ⋅ ml^−1) was added to collapse the pH gradient across the mitochondrial inner membrane (ΔpH) and maximize ΔΨm.
The assay buffer for both H2O2 and ΔΨm measurements was 120 mM KCl, 5 mM HEPES, 1 mM EGTA, 0.3% (w/v) BSA without or with 250 nM free calcium at pH 7.0. All assays were performed with stirring at 37°C.
Structure/activity analysis was performed on 18 structural analogs of two structurally-related hits from the primary screen (iGP-1 and iGP-2). These 20 compounds were tested in duplicate at 0.08–80 µM (0.1% DMSO final) in microplate format for effects on site-specific H2O2 production as described above. Additionally, four microplate assays for ΔΨm were run in parallel to the H2O2 assays. These assays were as described under “Measurement of mitochondrial H2O2 production and membrane potential” except that each substrate condition was assayed in a separate microplate. […] Plates were incubated in the dark at room temperature for 30–40 min (H2O2) or 10–15 min (ΔΨm) after the addition of substrate, and endpoint fluorescence was measured on the Victor plate reader. Endpoints were chosen for the H2O2 assays to provide good signal-to-noise ratios and linear rates of change without the indicator dye limiting the reaction. Endpoints for the ΔΨm assays were determined in pilot experiments as the times for TMRM accumulation to reach a steady state. […] Endpoint fluorescence values were normalized as described in the previous section with wells containing FCCP serving as positive controls for the ΔΨm assays.

[5] = tested on: skeletal muscle mitochondria; test: Mitochondrial respiration (Seahorse XF24) in plate-attached skeletal muscle mitochondria; type: biochemical, rat
Protocol: The effects of small-molecule inhibitors on respiration were tested in plate-attached skeletal muscle mitochondria using a Seahorse XF24 Analyzer according to published protocols. Briefly, mitochondria (2 or 4 µg protein) were attached to Seahorse assay plates by centrifugation in a mannitol and sucrose-based medium (Seahorse MAS buffer) containing 0.3% (w/v) BSA without or with 250 nM free calcium at pH 7.0. […] Compounds were added in these media just prior to loading the assay plate into the Seahorse instrument. Additions were made to set respiration in basal state 2 (substrate only), phosphorylating state 3 (5 mM ADP), non-phosphorylating state 4o (0.5 ug ⋅ mL^−1 oligomycin), and to reveal the non-mitochondrial rate (2 µM myxothiazol and 2.5 µM antimycin A). Each concentration of compound was tested in at least two wells on each plate. At least three biological replicates of each titration in each substrate condition were performed.

[6] = tested on: skeletal muscle mitochondria; test: Mitochondrial membrane potential (ΔΨm, TMRM) powered by glutamate plus malate; type: biochemical, rat; conditions: for ΔΨm with Glu + Mal + Nig (% change at 80 μM) / ΔΨm with Glu + Mal (% change at 80 μM): 5 mM glutamate, 5 mM malate; for ΔΨm with Glu + Mal + Nig (% change at 80 μM): with nigericin; for ΔΨm with Glu + Mal (% change at 80 μM): without nigericin
[7] = tested on: ubiquinone-binding site of complex I (site IQ); test: Site-specific H2O2 production from site IQ in skeletal muscle mitochondria; type: biochemical, rat; conditions: 5 mM succinate;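 also: H2O2 from superoxide detected by Amplex UltraRed fluorescence with added superoxide dismutase and horseradish peroxidase, endpoint read 30–40 min after substrate addition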
Protocol: Superoxide was measured as H2O2 after dismutation by endogenous or exogenous superoxide dismutase. Rates of total superoxide/H2O2 production were measured fluorimetrically using Amplex UltraRed in the presence of exogenous superoxide dismutase and horseradish peroxidase in a Varian Cary Eclipse fluorimeter as previously described [27]. Rates of production from specific sites were determined as previously described using the following eight conditions: flavin mononucleotide site of complex I (site IF) plus matrix NAD-linked dehydrogenases (collectively "site IF/DH") with 5 mM glutamate, 5 mM malate, and 4 µM rotenone [28]; ubiquinone-binding site of complex I (site IQ) with either 0.5 or 5 mM succinate [29]; flavin site of complex II (site IIF) with either 15 µM palmitoylcarnitine, 2.5 µM antimycin A, and 2 µM myxothiazol or 0.5 mM succinate, 4 µM rotenone, 2.5 µM antimycin A, and 2 µM myxothiazol [30], [31]; mGPDH with 1.7 mM glycerol phosphate, 4 µM rotenone, 2.5 µM antimycin A, 2 µM myxothiazol, 1 mM malonate, and 250 nM free calcium; outer ubiquinone-binding site of complex III (site IIIQo) with either 0.5 or 5 mM succinate, 4 µM rotenone and 2.5 µM antimycin A [32]. Candidate small-molecule inhibitors were added prior to the start of measurements and H2O2 calibration curves were performed in the presence of tested compounds.
3,200 compounds were tested initially at 2.5 µM (0.025% DMSO final) in duplicate on different plates against a panel of five distinct assays of site-specific superoxide/H2O2 production as described in the previous section with minor changes. […] Endpoint fluorescence was measured on a Perkin Elmer Victor V3 fluorescent plate reader. The fluorescence intensity of each well was normalized as % change from the average of eight DMSO controls on the same plate. Duplicate wells of each of four modulators of mitochondrial metabolism known to inhibit specific sites of superoxide/H2O2 production were included on each plate as positive controls and the resulting fluorescence levels set as −100% change from DMSO controls. Known inhibitors included 20 mM aspartate (for site IF/DH), 1 µM FCCP (for site IQ), 10 mM malonate (for site IIF), and 2 µM myxothiazol (for site IIIQo). The background fluorescence of the FCCP wells in the site IQ assay was used to normalize mGPDH plates run in parallel. To minimize position-dependent effects across each assay plate, Tukey’s two-way median polish was applied to fluorescence values after initial normalization [35], [36]. Tukey’s polish is an iterative subtraction of the median row and column values from each well’s given row or column. The procedure is repeated until sequential medians for each row and column are zero and positional gradients in fluorescence are eliminated.
These 20 compounds were tested in duplicate at 0.08–80 µM (0.1% DMSO final) in microplate format for effects on site-specific H2O2 production as described above. […] Plates were incubated in the dark at room temperature for 30–40 min (H2O2) or 10–15 min (ΔΨm) after the addition of substrate, and endpoint fluorescence was measured on the Victor plate reader. Endpoints were chosen for the H2O2 assays to provide good signal-to-noise ratios and linear rates of change without the indicator dye limiting the reaction.

[8] = target: T2, mGPDH; test: mGPDH enzymatic activity (DCPIP-linked reduction by glycerol phosphate) in frozen-thawed skeletal muscle mitochondria; type: biochemical
Protocol: Activity of mGPDH in frozen-thawed skeletal muscle mitochondria was measured as 2,6-dichlorophenolindophenol (DCPIP)-linked reduction by glycerol phosphate as described previously in the presence of 1 µM free calcium. Linear rates of change in absorbance (λ = 600 nm) were measured on the PHERAstar microplate reader and converted to rates of DCPIP reduction using an extinction coefficient of 21 mM^−1 ⋅ cm^−1 and a calculated pathlength of 0.6 cm. Kinetic parameters and inhibitor constants were determined by co-varying glycerol phosphate and novel inhibitors according to recommended procedures and calculated for each data set using GraphPad Prism. Vmax and Km were determined using hyperbolic curves fit to the Michaelis-Menten equation: rate = (Vmax ⋅ [substrate]) ⋅ (K m+[substrate])^ −1. Hill Slope and IC50 were determined using unconstrained, sigmoidal dose-response curve fits of % remaining activity against concentration of iGP. K ic and K iu were determined using plots of rate^−1 vs iGP and GP ⋅ rate^−1 vs iGP, respectively. Linear regression analysis yielded an average x-coordinate at which the best-fit lines intersect. These x-coordinates correspond to -K ic and -K iu in their respective plots. The apparent Vmax of mGPDH is dependent upon the concentration of DCPIP used, [38]. Therefore, to determine the maximal activity of mGPDH in isolated synaptosomes, DCPIP was replaced by 1 mM potassium ferricyanide and linear rates of change in absorbance (λ = 420 nm) were converted to rates of ferricyanide reduction using an extinction coefficient of 1.04 mM^−1 ⋅ cm^−1 and a calculated pathlength of 0.6 cm.

[9] = target: T3, outer ubiquinone-binding site of complex III (site IIIQo) (Rattus norvegicus, UniProt P00159+P20788); test: Site-specific H2O2 production from site IIIQo in skeletal muscle mitochondria; type: biochemical; conditions: primary screen, ∼2.5 µM, average of duplicates; 5 mM succinate
T3 construct: from tissue; host or cells: skeletal muscle mitochondria
How it was run: as §1

[10] = tested on: flavin mononucleotide site of complex I (site IF) plus matrix NAD-linked dehydrogenases (site IF/DH); test: Site-specific H2O2 production from site IF/DH in skeletal muscle mitochondria; type: biochemical, rat; conditions: primary screen, ∼2.5 µM, average of duplicates
How it was run: as §1

[11] = tested on: cortical synaptosomes; test: Synaptosomal respiration (Seahorse XF24); type: cell-based, mouse; conditions: 100 µM iGP-1, 0.5 mM aminooxyacetate
Protocol: Synaptosomal respiration was tested in the Seahorse XF24 using published protocols, [41]. Synaptosomes (20 or 25 µg protein) were attached to polyethyleneimine and Geltrex-coated Seahorse plates by centrifugation in ionic medium, [41] containing 10 mM glucose. Attachment buffer was carefully replaced with ionic buffer containing DMSO, 100 µM iGP-1, 0.5 mM aminooxyacetate, or iGP-1 with aminooxyacetate, and either 10 mM pyruvate or 15 mM glucose. Plates were equilibrated for 20 min at 37°C then loaded into the instrument followed by measurement of basal respiration and injection of 5 µM FCCP (to induce maximal, uncoupled respiration) with 4 µg ⋅ mL^−1 oligomycin (to prevent compensatory reversal of ATP synthase). In some experiments, 10 mM oxamate was added with the FCCP/oligomycin to minimize regeneration of cytosolic NAD^+ by lactate dehydrogenase. Inhibition of the malate-aspartate shuttle was defined as the difference between maximal rates ± aminooxyacetate, expressed as % of control. Inhibition of the glycerol phosphate shuttle was the difference between maximal rates with aminooxyacetate ± iGP-1, as % of control.

[12] = Fig. 4 structure/activity microplate assay, 0.08–80 µM, estimated, means of two replicates, read-out: mGPDH H2O2 production IC50

| SMILES | IC50 [2, 12] [nM] | inhibition at 80 µM [2] [%] | ΔΨm with Glu + Mal + Nig (% change at 80 μM) [6] [%] | ΔΨm with Glu + Mal (% change at 80 μM) [6] [%] | IQ H2O2 production with 5 mM Suc (% change at 80 μM) [7] [%] | ΔΨm with GP + Nig (% change at 80 μM) [3] [%] | also measured |
| --- | --- | --- | --- | --- | --- | --- | --- |
| O=CC(O)COP(=O)(O)O (stereo not drawn) [glyceraldehyde 3-phosphate, reference compound] | – | – | – | – | – | – | effect on the rate of H2O2 production from site IIF ([1]; 0.5 mM succinate, rotenone, myxothiazol, antimycin A, Fig. 2B): significantly inhibited; inhibition at 2500 µM ([2]; 2.5 mM, 1.7 mM glycerol phosphate, 250 nM free calcium, read-out: inhibition of the rate of H2O2 production from mGPDH): ~80%; effect on ΔΨm powered by glycerol phosphate ([3]; all concentrations tested, rotenone, atpenin A5, nigericin): significantly decreased; effect on ΔΨm powered by succinate [4]: significantly increased |
| O=C(O)CCC(=O)Nc1ccc(-c2nc3cc4ccccc4cc3[nH]2)cc1 [iGP-5] | 700 | 65 | 20 | 106 | -9 | -26 | effect on state 3 respiration with pyruvate and malate ([5]; 80 µM): significantly reduced; effect on glycerol phosphate-dependent state 3 respiration ([5]; 25 and 80 µM): significantly decreased; IC50 ([2]; Fig. 9B, read-out: mGPDH H2O2 Production IC50): 1000 ± 100 nM; IC50 ([2]; titration up to 80 µM (Fig. 6B, Fig. 7B), read-out: half-maximal effect on H2O2 production by mGPDH): ~1000 nM; effect on ΔΨm powered by glutamate and malate ([6]; 25 µM, only in the absence of nigericin): significantly increased; effect on ΔΨm powered by glycerol phosphate ([3]; 2.5 and 25 µM): significantly decreased; mGPDH Activity Hill Slope ([8]; 1 µM free calcium): 0.85 and 0.85±0.07; IC50 ([8]; 1 µM free calcium, Fig. 9A): 1000 ± 200 nM; K iu (uncompetitive inhibitor dissociation constant) ([8]; co-varying glycerol phosphate and inhibitor): 1.1 ± 0.0 µM; Ki ([8]; co-varying glycerol phosphate and inhibitor, read-out: K ic (competitive inhibitor dissociation constant)): 700 nM |
| O=C(O)CCC(=O)Nc1ccc(-c2nc3ccccc3o2)cc1 [iGP-2] | 20000 | 50 | 18 | 107 | -57 | 1 | IIF (% change from DMSO) ([1]; primary screen, ∼2.5 µM, average of duplicates, palmitoylcarnitine): 2.1%; mGPDH (% change from DMSO) ([2]; primary screen, ∼2.5 µM, average of duplicates, 16.7 mM glycerol phosphate, no added calcium): -12.2%; IIIQo (% change from DMSO) [9]: 2.5%; ΔΨm (% change from DMSO) ([6]; primary screen, ∼2.5 µM, average of duplicates, glutamate and malate): 0.8%; IF/DH (% change from DMSO) [10]: -2.6%; IQ (% change from DMSO) ([7]; primary screen, ∼2.5 µM, average of duplicates): 0.759% |
| NOCC(=O)O [aminooxyacetate, reference compound] | – | – | – | – | – | – | effect on basal or maximal respiration with pyruvate ([11]; 10 mM pyruvate): no effect; effect on basal and maximal respiration with glucose ([11]; 15 mM glucose, no oxamate): inhibited |
| O=C(O)CCC(=O)Nc1ccc(-c2nc3cc(C(=O)c4ccccc4)ccc3[nH]2)cc1 [iGP-6] | 3000 | 55 | 17 | 93 | -28 | -59 | – |
| CCCCCCNC(=O)CCC(=O)O [iGP-17] | – | -6 | -1 | -1 | -1 | 0 | – |
